Results taken from patent US20170107179A1 (Tetraphase Pharmaceuticals, Inc., priority 2010, published 2017).
Values after ≈ are worked out from the molar mass of the structure shown. Where two headings read alike, the source gives them in different places.

Experiments:
H. influenzae HI551 = test: Rat lung infection model; type: in vivo; details: H. influenzae intratracheal
[1] = tested on: Gram-negative and Gram-positive organisms (clinical isolates); test: Broth microdilution MIC against clinical isolates (CLSI M7-A8), Table 9; type: cell-based
[2] = tested on: Viridans group streptococci; test: Broth microdilution MIC by tetracycline resistance phenotype (Table 10); type: cell-based; parameters: unit not given beside the values
[3] = tested on: Gram-negative respiratory pathogens; test: Broth microdilution MIC, respiratory pathogens; type: cell-based; details: generally
S. pneumoniae SP106 = type: cell-based; details: SP106, plates containing compound at 5× the MIC, 5% sheep blood
[4] = Non-GLP monkey pharmacokinetics; type: in vivo; details: cynomolgus monkeys; for half-life: read-out: T½ (converted)
Procedure: As a result of promising pharmacokinetic data in Sprague Dawley rats,^a Compound 102 was evaluated in 3 non-naîve cynomolgus monkeys. […] Nine to ten plasma samples were drawn for each dosing route up to 24 hours into heparin-coated vacutainer tubes. Dose formulations were verified with a 5-point calibration curve. The plasma concentration of the compound was quantified by LC/MS/MS using an internal standard. Quality control (QC) samples (low, medium, high; minimum of 6 standards with LLOQ<3 ng/mL) and standard curves (in duplicate) were included in the bioanalytical run. WinNonLin was used to determine individual and mean PK parameters±standard deviation (F, Cmax, Tmax, T½, CL, Vss, AUC(0-t), AUC(0-∞), and MRT).

[5] = Preliminary pharmacokinetics in Sprague Dawley rats; details: rat, in vivo, po; Sprague Dawley rats (n = 3), initial preliminary testing; read-out: oral bioavailability (% F)
[6] = tested on: Legionella pneumophila, 70 isolates, serogroups 1-6; test: microbe, parasite or virus in culture; type: cell-based
S. aureus Smith = test: Mouse systemic infection (septicemia) model, CD-1 mice; details: Staphylococcus aureus, in Mus musculus, 48 h
E. coli DH10B EC971 LacZ = test: MIC, E. coli DH10B recombinantly expressing control gene; details: E. coli DH10B, arabinose-induced, ampicillin in medium
[7] = tested on: evaluated pathogens by tetracycline phenotype; test: Broth microdilution MIC by tetracycline phenotype (Table 14)
Gram-positive pathogens = test: Broth microdilution MIC, respiratory/skin pathogens (Table 12)
E. coli DH10B EC969 TetM = test: MIC, E. coli DH10B recombinantly expressing tetracycline-resistance gene; details: arabinose-induced, ampicillin in medium
E. coli DH10B EC970 TetK = test: as above; details: arabinose-induced, ampicillin in medium
[8] = tested on: E. coli DH10B EC1082 TetA; test: as above; details: arabinose-induced, ampicillin in medium
[9] = tested on: E. coli DH10B EC1083 TetB; test: as above; details: arabinose-induced, ampicillin in medium
[10] = cynomolgus monkey, plasma, IV 1 mg/kg, average of 3
[11] = cynomolgus monkey, plasma, PO 10 mg/kg, average of 3
[12] = Enterococcus faecium, E. faecium, TET NS, N=40
[13] = Enterococcus faecium, E. faecium, TET S, N=60
[14] = Streptococcus agalactiae, S. agalactiae, TET NS, N=39
[15] = Streptococcus agalactiae, S. agalactiae, TET S, N=11
[16] = Streptococcus pneumoniae, S. pneumoniae, TET NS, N=46
[17] = Streptococcus pneumoniae, S. pneumoniae, TET S, N=54
[18] = Streptococcus pyogenes, S. pyogenes, TET S, N=44

## CN(C)[C@@H]1C(O)=C(C(N)=O)C(=O)[C@@]2(O)C(O)=C3C(=O)c4c(O)c5c(c(F)c4C[C@H]3C[C@@H]12)CN(C(C)(C)C)C5 [Compound 102]
H. influenzae HI551; 25 mg/kg IV at 5, 24 and 48 hours
  log10 reduction in CFU versus the 72 hour untreated control, IV: 3.40±0.31 log10
H. influenzae HI551; 100 mg/kg orally at 5, 24, 48 hours (FIG. 4)
  log10 reduction in CFU versus the 72 hour untreated control, oral: 2.93±0.27 log10
[1]
  MICs against tetracycline resistant isolates relative to tetracycline susceptible isolates: not notably altered
  MICs relative to tetracycline: comparable MICs relative to tetracycline
  potency against tetracycline resistant isolates: maintained potency
  potency by MIC50/MIC90, Gram-positive relative to Gram-negative pathogens: more potent by MIC50/MIC90 against Gram-positive pathogens relative to Gram-negative pathogens
  potency relative to tetracycline: more potent
[1]; Acinetobacter lwoffii, n=29, read-out: MIC50
  MIC50: 0.12 µg/mL (≈ 0.227 µM)
[1]; Acinetobacter lwoffii, n=29, read-out: MIC90
  MIC90: 0.5 µg/mL (≈ 0.944 µM)
[1]; Acinetobacter lwoffli, S. maltophila, and streptococci
  MICs, fold lower than tetracycline: 2-4 fold
[1]; Enterobacter cloacae, n=29, read-out: MIC50
  MIC50: 4 µg/mL (≈ 7.55 µM)
[1]; Enterobacter cloacae, n=29, read-out: MIC90
  MIC90: 8 µg/mL (≈ 15.1 µM)
[1]; Escherichia coli, n=40, read-out: MIC50
  MIC50: 2 µg/mL (≈ 3.78 µM)
[1]; Escherichia coli, n=40, read-out: MIC90
  MIC90: 4 µg/mL (≈ 7.55 µM)
[1]; Kiebsielia oxytoca, n=30, read-out: MIC50
  MIC50: 1 µg/mL (≈ 1.89 µM)
[1]; Kiebsielia oxytoca, n=30, read-out: MIC90
  MIC90: 4 µg/mL (≈ 7.55 µM)
[1]; Klebsiella aerogenes, Enterobacter aerogenes, n=30, read-out: MIC50
  MIC50: 2 µg/mL (≈ 3.78 µM)
[1]; Klebsiella aerogenes, Enterobacter aerogenes, n=30, read-out: MIC90
  MIC90: 2 µg/mL (≈ 3.78 µM)
[1]; Klebsiella pneumoniae, Klebsiella pneumonia, n=27, read-out: MIC50
  MIC50: 4 µg/mL (≈ 7.55 µM)
[1]; Klebsiella pneumoniae, Klebsiella pneumonia, n=27, read-out: MIC90
  MIC90: 16 µg/mL (≈ 30.2 µM)
[1]; Morganella morganii, n=30, read-out: MIC50
  MIC50: 8 µg/mL (≈ 15.1 µM)
[1]; Morganella morganii, n=30, read-out: MIC90
  MIC90: 16 µg/mL (≈ 30.2 µM)
[1]; Proteus vulgaris, n=29, read-out: MIC50
  MIC50: 8 µg/mL (≈ 15.1 µM)
[1]; Proteus vulgaris, n=29, read-out: MIC90
  MIC90: > 16 µg/mL
[1]; Salmonella species, n=30
  MIC50: 2 µg/mL (≈ 3.78 µM)
  MIC90: 2 µg/mL (≈ 3.78 µM)
[1]; Serratia marcescens, n=30, read-out: MIC50
  MIC50: 4 µg/mL (≈ 7.55 µM)
[1]; Serratia marcescens, n=30, read-out: MIC90
  MIC90: 8 µg/mL (≈ 15.1 µM)
[1]; Shigella species, n=30, read-out: MIC50
  MIC50: 0.5 µg/mL (≈ 0.944 µM)
[1]; Staphylococcus aureus, Staphylococcus aureus (MRSA PVL+), n=30, read-out: MIC50
  MIC50: 0.25 µg/mL (≈ 0.472 µM)
[1]; Staphylococcus aureus, Staphylococcus aureus (MRSA PVL+), n=30, read-out: MIC90
  MIC90: 0.25 µg/mL (≈ 0.472 µM)
[1]; Staphylococcus aureus, Staphylococcus aureus MRSA (includes MRSA PVL+ group), n=105, read-out: MIC50
  MIC50: 0.5 µg/mL (≈ 0.944 µM)
[1]; Staphylococcus aureus, Staphylococcus aureus MRSA (includes MRSA PVL+ group), n=105, read-out: MIC90
  MIC90: 2 µg/mL (≈ 3.78 µM)
[1]; Stenotrophomonas maltophilia, n=29, read-out: MIC50
  MIC50: 0.5 µg/mL (≈ 0.944 µM)
[1]; Stenotrophomonas maltophilia, n=29, read-out: MIC90
  MIC90: 2 µg/mL (≈ 3.78 µM)
[1]; Streptococcus anginosus, n=20, read-out: MIC50
  MIC50: 0.06 µg/mL (≈ 0.113 µM)
[1]; Streptococcus anginosus, n=20, read-out: MIC90
  MIC90: 0.25 µg/mL (≈ 0.472 µM)
[1]; Streptococcus intermedius, n=30, read-out: MIC50
  MIC50: 0.12 µg/mL (≈ 0.227 µM)
[1]; Streptococcus intermedius, n=30, read-out: MIC90
  MIC90: 0.12 µg/mL (≈ 0.227 µM)
[1]; Streptococcus mitis, n=29, read-out: MIC50
  MIC50: 0.12 µg/mL (≈ 0.227 µM)
[1]; Streptococcus mitis, n=29, read-out: MIC90
  MIC90: 0.25 µg/mL (≈ 0.472 µM)
[1]; Streptococcus sanguis, n=18, read-out: MIC50
  MIC50: 0.06 µg/mL (≈ 0.113 µM)
[1]; Streptococcus sanguis, n=18, read-out: MIC90
  MIC90: 0.12 µg/mL (≈ 0.227 µM)
[1]; evaluated Gram-negative and Gram-positive pathogens, generally
  MICs, fold higher than those of tigecycline: 2-4 fold
[2]; TET NS, n=32
  MIC50: 0.12
  MIC90: 0.25
[2]; TET S, n=65
  MIC50: 0.06
  MIC90: 0.12
[3]
  MICs, fold higher than those of tigecycline: 2-4 fold
S. pneumoniae SP106
  spontaneous resistance frequency: 1×10^−8
[4]; [10]
  AUC(0-inf): 9310 ng·h/mL
  AUC(0-t): 4850 ng·h/mL
  clearance: 1.86 mL/min/kg
  half-life: 23.3 h
[4]; cynomolgus monkey, plasma, IV 1 mg/kg, average of 3, read-out: Vdss
  Vd: 3.4 L/kg
[4]; cynomolgus monkey, plasma, PO 10 mg/kg vs IV 1 mg/kg
  bioavailability: 33.7%
[4]; [11]
  AUC(0-inf): 35400 ng·h/mL
  AUC(0-t): 16300 ng·h/mL
  Cmax: 1260 ng/mL
  Tmax: 4 h
  half-life: 24.8 h
[4]; IV 1 mg/kg, average of 3
  Co: 3170 ng/mL
[5]
  bioavailability: 48.3%
[6]
  MIC50: 2 µg/mL (≈ 3.78 µM)
  MIC90: 8 µg/mL (≈ 15.1 µM)
S. aureus Smith; iv, read-out: Percent survival at 48 hours, IV (3 mg/kg)
  responders at 3 mg/kg: 100%
S. aureus Smith; po, read-out: Percent survival at 48 hours, PO (30 mg/kg)
  responders at 30 mg/kg: 83%
E. coli DH10B EC971 LacZ
  MIC EC971 LacZ: 2
[7]
  MICs, fold higher against tetracycline resistant isolates relative to tetracycline susceptible isolates: 2-4 fold
[7]; [12]
  MIC50: 0.25 µg/mL (≈ 0.472 µM)
  MIC90: 0.5 µg/mL (≈ 0.944 µM)
[7]; [13]
  MIC50: 0.12 µg/mL (≈ 0.227 µM)
  MIC90: 0.12 µg/mL (≈ 0.227 µM)
[7]; F. faecalis, TET NS, N=71
  MIC50: 0.5 µg/mL (≈ 0.944 µM)
  MIC90: 1 µg/mL (≈ 1.89 µM)
[7]; F. faecalis, TET S, N=30
  MIC50: 0.12 µg/mL (≈ 0.227 µM)
  MIC90: 0.25 µg/mL (≈ 0.472 µM)
[7]; [14]
  MIC50: 0.5 µg/mL (≈ 0.944 µM)
  MIC90: 0.5 µg/mL (≈ 0.944 µM)
[7]; [15]
  MIC50: 0.12 µg/mL (≈ 0.227 µM)
  MIC90: 0.12 µg/mL (≈ 0.227 µM)
[7]; [16]
  MIC50: 0.12 µg/mL (≈ 0.227 µM)
  MIC90: 0.12 µg/mL (≈ 0.227 µM)
[7]; [17]
  MIC50: 0.06 µg/mL (≈ 0.113 µM)
  MIC90: 0.12 µg/mL (≈ 0.227 µM)
[7]; Streptococcus pyogenes, S. pyogenes, TET NS, N=6
  MIC50: 0.25 µg/mL (≈ 0.472 µM)
[7]; [18]
  MIC50: 0.12 µg/mL (≈ 0.227 µM)
  MIC90: 0.12 µg/mL (≈ 0.227 µM)
Gram-positive pathogens; Gram-positive aerobic pathogens, generally
  MICs, fold higher than those of tigecycline: 2-4 fold
Gram-positive pathogens; pneumococci and beta-hemolytic streptococci
  MICs relative to tetracycline: several-fold lower than those of tetracycline
Gram-positive pathogens; staphylococci
  MICs relative to tetracycline: comparable to those of tetracycline
E. coli DH10B EC969 TetM
  MIC EC969 TetM: 1
E. coli DH10B EC970 TetK
  MIC EC970 TetK: 0.5
[8]
  MIC EC1082 TetA: 2
[9]
  MIC EC1083 TetB: 1
